Read-outs that look alike come from different tables or passages of the source.
Key:
NAMPT = molecular target: T1, NAMPT (Homo sapiens, UniProt P43490); assay: Biochemical inhibition assay: NAMPT enzymatic reaction, NMN quantified by mass spectrometry; conditions: read-out: Biochem IC50
T1 construct: His tag; host or cells: E. coli
How it was run: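 Inhibition of E. coli-expressed His-tagged human NAMPT, measured as NMN formation by mass spectrometry after a 30 min room-temperature reaction containing 1 μM NAM, 100 μM PRPP and 2.5 mM ATP.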

A2780 cells = assay: In-vitro cell proliferation assay (SRB), A2780 cells; format: cell-based; conditions: Homo sapiens, A2780, 72 h, A2780 cells, 72 hours, read-out: A2780 IC50
How it was run: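 SRB read-out: 6% TCA fix 1 h at 4° C., stain, Tris solubilize, A570. Media-only background subtracted; % inhibition from two compound concentrations.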

T1 sequence (P43490 whole entry): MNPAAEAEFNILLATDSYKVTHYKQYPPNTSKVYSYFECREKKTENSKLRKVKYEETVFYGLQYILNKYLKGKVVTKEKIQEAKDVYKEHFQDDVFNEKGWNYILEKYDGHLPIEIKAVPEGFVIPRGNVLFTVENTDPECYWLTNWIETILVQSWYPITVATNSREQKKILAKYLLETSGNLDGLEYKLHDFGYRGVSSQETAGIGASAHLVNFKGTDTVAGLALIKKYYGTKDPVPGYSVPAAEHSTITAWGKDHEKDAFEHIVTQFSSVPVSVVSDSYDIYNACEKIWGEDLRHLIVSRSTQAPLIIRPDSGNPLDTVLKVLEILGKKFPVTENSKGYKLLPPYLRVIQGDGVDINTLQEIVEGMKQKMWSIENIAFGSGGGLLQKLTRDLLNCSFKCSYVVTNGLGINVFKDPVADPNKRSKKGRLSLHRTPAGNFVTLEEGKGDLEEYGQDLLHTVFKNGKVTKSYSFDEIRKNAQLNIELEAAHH

SMILES | IC50 (NAMPT; NAMPT enzymatic reaction) [nM] | IC50 (A2780 cells; SRB) [nM] | IC50 (NAMPT; NAMPT enzymatic assay) [nM] | IC50 (A2780 cells; SRB assay) [nM]
O=C(NCc1ccc(S(=O)(=O)c2c(Cl)cccc2Cl)cc1)c1ccc2nccn2c1 | 1.2 | 18.8 |  | 
Cc1ccc(S(=O)(=O)c2ccc(CNC(=O)c3cc4ccncc4o3)cc2)c(Cl)c1 | 14.1 | 14.2 |  | 
CC(C)NC(=O)c1cccc(S(=O)(=O)c2ccc(CNC(=O)c3cnc4nccn4c3)cc2)c1 |  | 65.8 | 7 | 
CCCOc1ccc(S(=O)(=O)c2ccc(CNC(=O)c3cc4cnccc4[nH]3)cc2)cc1F | 30.9 | 10.4 |  | 
O=C(NCc1ccc(S(=O)(=O)c2cccc(Cl)c2)cc1)c1ccc2nccn2c1 [N-({4-[(3-chlorobenzene)sulfonyl]phenyl}methyl)imidazo[1,2-a]pyridine-6-carboxamide] | 9.08 | 3.07 |  | 
Cc1nc(S(=O)(=O)c2ccc(CNC(=O)c3cc4ccncc4s3)cc2)ccc1F [N-{[4-(5-fluoro-6-methylpyridine-2-sulfonyl)phenyl]methyl}thieno[2,3-c]pyridine-2-carboxamide] |  | 7.1 | 8.3 | 
CCCn1cc(S(=O)(=O)c2ccc(CNC(=O)c3cnc4[nH]ncc4c3)cc2)cn1 [N-{[4-(1-propyl-1H-pyrazole-4-sulfonyl)phenyl]methyl}-1H-pyrazolo[3,4-b]pyridine-5-carboxamide] |  | 7 | 8 | 
O=C(NCc1ccc(S(=O)(=O)N2CCCCC2)cc1)c1cc2cccnc2s1 [N-{[4-(piperidine-1-sulfonyl)phenyl]methyl}thieno[2,3-b]pyridine-2-carboxamide] | 6150 |  |  | 14000
O=C(NCc1ccc(S(=O)(=O)c2ccnc(N3CCOCC3)c2Cl)cc1)c1cc2ccncc2s1 [N-({4-[3-chloro-2-(morpholin-4-yl)pyridine-4-sulfonyl]phenyl}methyl)thieno[2,3-c]pyridine-2-carboxamide] |  | 1.8 | 8.5 | 
CCOc1ccc(S(=O)(=O)c2ccc(CNC(=O)c3cnc4[nH]ncc4c3)cc2)cc1 | 15.1 | 8.4 |  | 
CC(C)c1cccc(S(=O)(=O)c2ccc(CNC(=O)c3cc4ccncc4o3)cc2)c1 |  | 7 | 4.5 | 
CCOc1cc(S(=O)(=O)c2ccc(CNC(=O)c3ccc4nccn4c3)cc2)ccc1F | 17 | 6 |  | 
O=C(NCc1ccc(S(=O)(=O)c2cccc(C(=O)NC3CCCC3)c2)cc1)c1cnc2[nH]ncc2c1 [N-[(4-{[3-(cyclopentylcarbamoyl)benzene]sulfonyl}phenyl)methyl]-1H-pyrazolo[3,4-b]pyridine-5-carboxamide] |  | 33 | 33.3 | 
O=C(NCc1ccc(S(=O)(=O)c2cnc3ccc(Cl)cn23)cc1)c1ccc2nccn2c1 [N-[(4-{6-chloroimidazo[1,2-a]pyridine-3-sulfonyl}phenyl)methyl]imidazo[1,2-a]pyridine-6-carboxamide] |  | 0.4 | 5.3 | 
COc1ccc(NS(=O)(=O)c2ccc(CNC(=O)c3cc4cnccc4[nH]3)cc2)c(OC)c1 [N-({4-[(2,4-dimethoxyphenyl)sulfamoyl]phenyl}methyl)-1H-pyrrolo[3,2-c]pyridine-2-carboxamide] |  | 6.9 | 5.8 | 
O=C(NCc1ccc(S(=O)(=O)c2ccc(-c3ccccc3)cc2)cc1)c1ccc2ncsc2c1 [N-({4-[(4-phenylbenzene)sulfonyl]phenyl}methyl)-1,3-benzothiazole-6-carboxamide] | 20.7 | 100 to 1000 |  | 
O=C(NCc1ccc(S(=O)(=O)c2cccc(-c3ccccc3)c2)cc1)c1cc2ccncc2o1 [N-({4-[(3-phenylbenzene)sulfonyl]phenyl}methyl)furo[2,3-c]pyridine-2-carboxamide] | 13.7 | 23.4 |  | 
COc1ccc(OC(F)(F)F)cc1S(=O)(=O)c1ccc(CNC(=O)c2cnc3[nH]ncc3c2)cc1 |  | 24.6 | 92.6 | 
O=C(NCc1ccc(S(=O)(=O)c2cc(F)ccc2Cl)cc1)c1cc2ccncc2o1 | 16.3 | 24.8 |  | 
COc1cc(S(=O)(=O)c2ccc(CNC(=O)c3cc4ccncc4s3)cc2)ccc1Cl | 2.6 | 2.3 |  | 
COc1cccc(S(=O)(=O)c2ccc(CNC(=O)c3cc4ccncc4s3)cc2)c1OC [N-({4-[(2,3-dimethoxybenzene)sulfonyl]phenyl}methyl)thieno[2,3-c]pyridine-2-carboxamide] |  | 3.4 | 9 | 
O=C(NCc1ccc(S(=O)(=O)c2cc(OC(F)(F)F)ccc2Cl)cc1)c1cnc2nccn2c1 |  | 12.5 | 8 | 
COc1cc(C)cc(OC)c1S(=O)(=O)c1ccc(CNC(=O)c2cc3ccncc3s2)cc1 [N-({4-[(2,6-dimethoxy-4-methylbenzene)sulfonyl]phenyl}methyl)thieno[2,3-c]pyridine-2-carboxamide] | 7 |  |  | 3

SMILES | IC50 (NAMPT; NAMPT enzymatic reaction) [nM] | IC50 (A2780 cells; SRB) [nM] | IC50 (NAMPT; NAMPT enzymatic assay) [nM] | IC50 (A2780 cells; SRB assay) [nM]
CSc1ccc(S(=O)(=O)c2ccc(CNC(=O)c3cc4ccncc4o3)cc2)cc1F |  | 11.2 | 12.3 | 
COc1c(F)cccc1S(=O)(=O)c1ccc(CNC(=O)c2ccc3nccn3c2)cc1 [N-({4-[(3-fluoro-2-methoxybenzene)sulfonyl]phenyl}methyl)imidazo[1,2-a]pyridine-6-carboxamide] | 76.9 | 65 |  | 
O=C(NCc1ccc(S(=O)(=O)c2cc(F)cc(Cl)c2)cc1)c1cc2ccncc2s1 | 1.4 | 0.6 |  | 
O=C(NCc1ccc(S(=O)(=O)c2cc(C(F)(F)F)ccc2Cl)cc1)c1cc2ccncc2o1 |  | 14.1 | 13.9 | 
CCCOc1cccc(S(=O)(=O)c2ccc(CNC(=O)c3cnc4nccn4c3)cc2)c1 | 4.8 | 7.5 |  | 
CC(C)Oc1ccccc1NS(=O)(=O)c1ccc(CNC(=O)c2cc3cnccc3[nH]2)cc1 [N-[(4-{[2-(propan-2-yloxy)phenyl]sulfamoyl}phenyl)methyl]-1H-pyrrolo[3,2-c]pyridine-2-carboxamide] | 3 |  |  | 1
Cn1cc2cc(S(=O)(=O)c3ccc(CNC(=O)c4cc5ccncc5s4)cc3)ccc2n1 [N-{[4-(2-methyl-2H-indazole-5-sulfonyl)phenyl]methyl}thieno[2,3-c]pyridine-2-carboxamide] |  | 3.3 | 5.5 | 
CCc1cccc(S(=O)(=O)c2ccc(CNC(=O)c3ccc4nccn4c3)cc2)c1 [N-({4-[(3-ethylbenzene)sulfonyl]phenyl}methyl)imidazo[1,2-a]pyridine-6-carboxamide] | 4.83 | 3.23 |  | 
O=C(NCc1ccc(S(=O)(=O)c2cc(Cl)cc(C(F)(F)F)c2)cc1)c1cc2cnccc2[nH]1 [N-[(4-{[3-chloro-5-(trifluoromethyl)benzene]sulfonyl}phenyl)methyl]-1H-pyrrolo[3,2-c]pyridine-2-carboxamide] |  | 2.7 | 19.9 | 
O=C(NCc1ccc(S(=O)(=O)c2ccc(OCC(F)(F)F)c(F)c2)cc1)c1cnc2nccn2c1 |  | 7.3 | 4.4 | 
CN(C)C(=O)c1ccccc1S(=O)(=O)c1ccc(CNC(=O)c2cc3ccncc3o2)cc1 |  | 1000 to 10000 | 100 to 1000 | 
Cn1ncc2ccc(S(=O)(=O)c3ccc(CNC(=O)c4cc5cnccc5[nH]4)cc3)cc21 [N-{[4-(1-methyl-1H-indazole-6-sulfonyl)phenyl]methyl}-1H-pyrrolo[3,2-c]pyridine-2-carboxamide] |  | 3.3 | 5.1 | 
CCCOc1cccc(S(=O)(=O)c2ccc(CNC(=O)c3cnc4[nH]ncc4c3)cc2)c1 [N-({4-[(3-propoxybenzene)sulfonyl]phenyl}methyl)-1H-pyrazolo[3,4-b]pyridine-5-carboxamide] | 30.4 | 41 |  | 
O=C(NCc1ccc(S(=O)(=O)c2cc(F)ccc2CO)cc1)c1cc2cnccc2[nH]1 |  | 67.5 | 16.9 | 
O=C(NCc1ccc(S(=O)(=O)c2cccc(-n3cccn3)c2)cc1)c1cc2cnccc2[nH]1 [N-[(4-{[3-(1H-pyrazol-1-yl)benzene]sulfonyl}phenyl)methyl]-1H-pyrrolo[3,2-c]pyridine-2-carboxamide] |  | 7.4 | 9.7 | 
COc1cccc(S(=O)(=O)c2ccc(CNC(=O)c3cc4ccncc4s3)cc2)c1 [N-({4-[(3-methoxybenzene)sulfonyl]phenyl}methyl)thieno[2,3-c]pyridine-2-carboxamide] | 5 |  |  | 2.6
COc1cc(S(=O)(=O)c2ccc(CNC(=O)c3cc4ccncc4o3)cc2)ccc1Cl [N-({4-[(4-chloro-3-methoxybenzene)sulfonyl]phenyl}methyl)furo[2,3-c]pyridine-2-carboxamide] | 5.9 | 6 |  | 
COc1ccc(Cl)cc1S(=O)(=O)c1ccc(CNC(=O)c2cnc3nccn3c2)cc1 | 5.5 | 6.1 |  | 
COc1ccc(S(=O)(=O)c2ccc(CNC(=O)c3cc4ccncc4s3)cc2)c(OC)c1 [N-({4-[(2,4-dimethoxybenzene)sulfonyl]phenyl}methyl)thieno[2,3-c]pyridine-2-carboxamide] | 4.5 | 1.6 |  | 
COc1ccccc1S(=O)(=O)c1ccc(CNC(=O)c2ccc3nccn3c2)cc1 [N-({4-[(2-methoxybenzene)sulfonyl]phenyl}methyl)imidazo[1,2-a]pyridine-6-carboxamide] | 26.5 | 15.3 |  | 
CC(=O)c1ccccc1S(=O)(=O)c1ccc(CNC(=O)c2cnc3[nH]ncc3c2)cc1 [N-({4-[(2-acetylbenzene)sulfonyl]phenyl}methyl)-1H-pyrazolo[3,4-b]pyridine-5-carboxamide] | 3.6 | 11.4 |  | 
O=C(NCc1ccc(S(=O)(=O)c2ccc(F)cc2C(F)(F)F)cc1)c1cnc2nccn2c1 |  | 100 to 1000 | 18.7 | 
O=C(NCc1ccc(S(=O)(=O)c2ccc(F)c(F)c2)cc1)c1cnc2[nH]ncc2c1 | 54.2 | 28.9 |  | 

Reference: patent US12336981B2, “Compounds and compositions for the inhibition of NAMPT” (Valo Health, Inc., priority 2010, dated 2025)
